Read-outs that look alike come from different tables or passages of the source. Blank lines part the entries; values can stand above or below the molecule they belong to. No end group written: not given here.
What was measured:
[1] = biological target: T1, purified native PR-3 from human neutrophils (Homo sapiens, UniProt P24158); test: 35S-labelled 26 kD TNFα autoradiographic convertase assay with purified native PR-3; format: biochemical; conditions: PR-3 0.3 μg/ml preincubated 30 minutes
T1 construct: from tissue; host or cells: human blood neutrophils
T1 sequence (P24158 28-248): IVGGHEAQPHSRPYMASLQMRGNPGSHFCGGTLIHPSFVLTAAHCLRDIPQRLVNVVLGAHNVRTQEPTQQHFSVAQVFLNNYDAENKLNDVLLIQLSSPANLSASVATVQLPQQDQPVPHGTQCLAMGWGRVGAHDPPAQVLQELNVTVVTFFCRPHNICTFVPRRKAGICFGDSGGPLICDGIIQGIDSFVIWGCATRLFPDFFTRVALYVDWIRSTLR
Protocol: (§1) ^35S-cysteine-labelled 26 kD TNFα was used to assay for convertase inhibitors as follows. 25 μl of in vitro translated material was combined with 250 μl of solution containing convertase activity partially purified from uninduced HL60 cells, plus compounds to be assayed for inhibitory activity. The convertase was produced by harvesting 2×10^9 HL60 cells, disrupting the cells, and isolating S-1 (supernatant fluid from a 100,000 ×g centrifugation) and P-30 (pellet from a 30,000×g centrifugation) fractions totalling 18 and 6 ml, respectively. 250 μl of the P-30 fraction was used, although the S-1 fraction may also be used. The assay was carried out at 30° C. for 1 hour, essentially as described above. Next, the reaction mixture was immunoprecipitated with rabbit anti-human TNFα polyclonal antisera (produced from TNFα made in E. coli) and protein A Sepharose, pelleted and washed. The bound protein was eluted and electrophoresed using SDS-PAGE. The gel was fixed in 40% methanol, 10% acetic acid, soaked in Enlightening (Dupont), dried, and exposed to X-ray film which was subsequently developed.
The above assay was also used with purified native PR-3 from human neutrophils to test a variety of proteinase inhibitors for their ability to inhibit TNFα convertase activity, as shown in FIG. 5. Purified PR-3 (0.3 μg/ml) was preincubated for 30 minutes with the following inhibitors prior to addition of ^35S-labelled 26 kD-TNFα, and then assayed as described above: DCI (45 μM), α-2-macroglobulin (1 mg/ml), PMSF (20 μM), leupeptin (2 μg/ml), EDTA (10 mM), or pepstatin (2 μg/ml).

[2] = biological target: T2, PR-3 (Homo sapiens, UniProt P24158); conditions: cited from earlier work
T2 sequence (P24158 28-248): T1 sequence (P24158 28-248)

[3] = biological target: T3, recombinant PR-3 (rPR-3) (Homo sapiens, UniProt P24158); test: Residual recombinant PR-3 activity with Boc-Ala-ONp substrate; format: biochemical
T3 construct: made in house; host or cells: Sf9 insect cells (baculovirus, pAcC13preproPR-3)
T3 sequence (P24158 28-248 limits assumed): T1 sequence (P24158 28-248)
Protocol: Cytoplasmic anti-neutrophil cytoplasmic antibodies (c-ANCA) are human polyclonal antibodies derived from patients with Wegener's granulomatosis. […] Protein-A-purified human c-ANCA (supplied by Dr. Erik Hack, The Netherlands) was mixed with purified recombinant PR-3 (SEQ ID NO: 23) prepared as described above at various molar ratios of antibody to enzyme, and after incubation for 1 hour at 37° C., residual enzyme activity was measured using the Boc-Ala-ONp substrate as described in Example 4.
The two peptide diphosphonate inhibitors, Boc-Ala-Pro-Val-(OPh)2 and Boc-Val-Pro-Val-(OPh)2, were mixed at various concentrations with 125 ng of rPR-3 (prepared as described above) and incubated for 1 hour at 25° C. The residual enzyme activity was measured using the Boc-Ala-ONp substrate and compared to the same amount of enzyme incubated in the absence of inhibitor. Under these conditions, the Boc-Ala-Pro-Val-(OPh)2 inhibited PR-3 with an IC50 of about 10 μM and the Boc-Val-Pro-Val-(OPh)2 inhibited PR-3 with an IC50 of about 0.4 μM. […] Thus, recombinant PR-3 may be employed in detection of useful inhibitors of native PR-3.

[4] = biological target: T2, PR-3; test: Inhibition of PR-3, summary statement of the assays shown below; format: biochemical
From the text: As shown below, PR-3 is inhibited by peptide diphenyl phosphonate inhibitors, elastinal, and dichloro-isocoumarin (DCI). The peptide diphenyl phosphonate inhibitors include Boc-Val-Pro-Val-p(OPh)2 and Boc-Ala-Pro-Val-p(OPh)2 (BOC-butoxycarbonyl). […] “Boc” means N-tert-butoxycarbonyl and “p(OPh)2” represents the diphenyl phosphonate moiety, wherein the formula—COOH group is replaced with P(=0)-(O-phenyl)2. See Oleksyszyn et al., Biochem 30:485 (1991). It will be appreciated that other peptide diphenyl phosphonate molecules may inhibit PR-3. Potential inhibitors may be constructed using the procedures shown in Oleksyszyn et al., supra, using small aliphatic peptides, for an example. Once the potential inhibitors are made, they may be tested in the assays shown below.

[5] = biological target: T4, TNFα convertase/PR-3 (purified native PR-3) (Homo sapiens, UniProt P24158); test: Colorimetric Boc-Ala-ONp assay for convertase inhibition; format: biochemical
T4 construct: from tissue; host or cells: human blood neutrophils
T4 sequence (P24158 28-248): T1 sequence (P24158 28-248)
Protocol: TNFα convertase inhibition can also be measured by a colorimetric assay. In this type of assay, the actual activity of TNFα convertase is measured directly using a colorimetric TNFα convertase substrate. […] One such substrate is Boc-Ala-ONp (Bachem Bioscience, Inc., Philadelphia, Pa.). Other potentially useful substrates can be predicted from the structure of TNFα convertase and other serine proteases. Although the example herein uses purified native PR-3 as the TNFα convertase, it is contemplated that recombinant PR-3 or other TNFα convertases can be used in this assay as well.
Peptide diphenyl phosphonate inhibitors were synthesized and stored as lyophilized solids as described in Oleksyszyn and Powers, Biochem 30:485-493 (1991). Inhibitor solutions (10 mg/ml) were prepared in 100% dimethyl sulfoxide (DMSO) and diluted into aqueous buffers upon initiation of the experiments. 3,4, dichloro-isocoumarin was purchased from CalBiochem. Purified PR-3 (10 μl, 0.1 mg/ml) was mixed with varying concentrations of protease inhibitor ([…]) in 20 mM sodium phosphate buffer, pH 7.0, containing 0.1 M sodium chloride. Aliquots (40 μl) were removed at selected times and diluted 1/10 into a colorimetric assay for convertase, containing 0.5-1 mM Boc-Ala-ONp (prepared fresh from a 50 mM stock in 100% methanol) in 0.02 M sodium phosphate buffer, pH 7.0, 0.1 M sodium chloride. The increase in absorbance was monitored at 347 nm on a Hewlett Packard 8450A spectrophotometer, and using an extinction coefficient of 5.5×10^3 M^−1cm^−1 to calculate units of enzyme activity.
The peptide diphenyl phosphonates were tested in the colorimetric assay described in Example 3, for inhibition of TNFα convertase/PR-3 activity.

[6] = biological target: T5, TNFα convertase from HL60 cells (Homo sapiens, UniProt P24158); test: 35S-labelled 26 kD TNFα in vitro transcription/translation autoradiographic convertase assay with HL60 convertase (P-30 fraction); format: biochemical; conditions: 5 mg/ml; 30° C., 1 hour; SDS-PAGE autoradiography
T5 construct: solution containing convertase activity partially purified from uninduced HL60 cells; endogenous in cells
T5 sequence (P24158 28-248): T1 sequence (P24158 28-248)
From the text: A preferred assay procedure consists of in vitro transcription/translation to produce the 26 kD molecule, followed by treatment with convertase in the presence or absence of compounds being tested for convertase inhibitory activity. The procedure entails in vitro transcription/translation of the TNFα cDNA present in the pGEM vector. Thus, the sequence was removed from pB11 by Pst I digestion and was inserted into the Pst I site of pGEM-3 (obtainable from Promega Biotec, Madison Wis.). The resulting plasmid, termed pGEM-TNFα14, was amplified in E. coli using established techniques, and plasmid DNA was prepared according to the procedure of Birnboim and Doly, described above. Plasmid DNA was transcribed in vitro by linearizing it with Hind III, and the linearized plasmid templates were used to prepare capped transcripts with T7 RNA polymerase and an in vitro transcription kit supplied by Promega Biotec (Madison, Wis.).
The mRNA produced above was translated in vitro in the presence of ^35S-cysteine to produce ^35S-cysteine-labelled 26 kD TNFα. A rabbit reticulocyte lysate translation kit was used, also supplied by Promega Biotec, and the conditions recommended by the manufacturer were followed.
as §1, with “The bound protein was eluted and electrophoresed using SDS-PAGE. The gel was fixed in 40% methanol, 10% acetic acid, soaked in Enlightening (Dupont), dried, and exposed to X-ray film which was subsequently developed.” left out

Molecule: O=S(=O)(F)Cc1ccccc1 [PMSF, phenylmethyl-sulfonyl fluoride]
- inhibition of TNFα convertase activity of purified PR-3 ([1]; 20 μM): significant inhibitory activity
- inhibition of PR-3 [2]: inhibited

Molecule: CC(C)C(NC(=O)[C@@H]1CCCN1C(=O)[C@@H](NC(=O)OC(C)(C)C)C(C)C)P(=O)(Oc1ccccc1)Oc1ccccc1 (stereo partly drawn) [VPV, Boc-Val-Pro-Val-p(OPh)2]
- IC50 [3]: ~400 nM
- inhibition of PR-3 [4]: inhibited
- inhibition of TNFα convertase/PR-3 activity ([5]; 35 μM): demonstrated inhibitory activity

- inhibition of the convertase (conversion of 26 kD TNFα) [6]: inhibit the convertase
- inhibition of PR-3 [4]: inhibited
Molecule: CC(C)C[C@H](NC(=O)N[C@H](C(=O)N[C@@H](CCC(N)=O)C(=O)N[C@@H](C)C=O)[C@@H]1CCNC(=N)N1)C(=O)O [elastinal]

Molecule: AQAVRSSS
- inhibition of convertase activity ([5]; 50 μM, Boc-Ala-ONp colorimetric assay with PR-3): did not inhibit convertase activity significantly

Molecule: α1-antitrypsin: protein reported to inhibit PR-3
- inhibition of PR-3 [2]: inhibited

- inhibition of TNFα convertase activity of purified PR-3 ([1]; 1 mg/ml): significant inhibitory activity
Molecule: α-2-macroglobulin: proteinase inhibitor tested against purified PR-3
- inhibition of PR-3 [2]: inhibited

From US6599706B1, “Recombinant PR-3 and assays employing the same” (Chiron Corporation, priority 1994, dated 2003)
